Test results: patent US20220112479A1, “COMPOUNDS STABILIZING AMYLASES IN LIQUIDS” (BASF SE, priority 2018, published 2022)

Experiments:
Type in all cases: biochemical
Savinase Ultra 16.0L = molecular target: T1, Savinase Ultra 16.0L (Lederbergia lenta, UniProt P29600); experiment: protease storage stability in liquid formulation (Suc-AAPF-pNA substrate); conditions: storage at 37° C.
T1 construct: purchased Sigma-Aldrich
T1 sequence (P29600 1-269): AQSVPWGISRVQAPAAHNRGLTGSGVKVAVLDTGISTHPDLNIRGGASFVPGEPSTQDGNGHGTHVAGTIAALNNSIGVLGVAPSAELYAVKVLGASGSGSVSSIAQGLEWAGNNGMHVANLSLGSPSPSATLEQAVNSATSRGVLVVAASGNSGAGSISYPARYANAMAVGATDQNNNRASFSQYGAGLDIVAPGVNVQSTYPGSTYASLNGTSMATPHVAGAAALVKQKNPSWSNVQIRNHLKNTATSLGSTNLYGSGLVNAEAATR
Procedure: (§1) Base test formulations were manufactured by making base formulations I to V by mixing the components according to Table 1.
Protease used: (S) Savinase Ultra 16.0L (CAS-No. 9014-01-1, EC-No. 232-752-2) was purchased from Sigma-Aldrich
(§2) The respective component (a) or comparative compound was added, if applicable, to the respective base formulation in amounts as indicated in Table 1.
The amount of protease as provided in Table 1 refers to active protein.
(§3) Water was added to accomplish the balance to 100.
Protease activity at certain points in time as indicated in Table 3 was be determined by employing Succinyl-Ala-Ala-Pro-Phe-p-nitroanilide (Suc-AAPF-pNA, short AAPF) as substrate. pNA is cleaved from the substrate molecule by proteolytic cleavage, resulting in release of yellow color of free pNA which was determined by measuring […]. Measurements were done at 20° C.
The proteolytic activity values provided in Table 3 were calculated referring to the value determined in the reference formulation at the time 0.
The nomenclature of formulations is as follows: the Roman number before the full stop characterizes the base formulation, the Arabian number the type of salt (A.#inventive salt (component (a)); B.# comparative compound). Zero (“0”): no salt, but diethylene glycol.

[1] = tested on: Amy3=Stainzyme Plus L (12L); experiment: amylase storage stability in liquid formulation (pNP release from Ethyliden-blocked-pNPG7); conditions: base formulation II., 1.5 wt % component (a), storage at 37° C.
Procedure: The storage stability of amylase was assessed at 37° C.
as §1
Amylases used: Amy1=Stainzyme, Amy2=Amplify, Amy3=Stainzyme Plus L (12L)
as §2
The amount of amylase as provided in Table 1 refers to active protein.
as §3
Amylase activity at certain points in time as indicated in Table 2 was measured quantitatively by the release of the chromophore para-nitrophenol (pNP) from the substrate (Ethyliden-blocked-pNPG7, Roche Applied Science 10880078103). The alpha-amylase degrades the substrate into smaller molecules and α-glucosidase (Roche Applied Science 11626329103), which is present in excess compared to the amylase, process these smaller products until pNP is released; the release of pNP, measured via an increase of absorption at 405 nm, is directly proportional to the amylase activity of the sample. Amylase standard: Termamyl 120 L (Sigma 3403).
The amylolytic activity values provided were calculated referring to the value determined in the reference formulation at the time 0.
The nomenclature of formulations is as follows: the Roman number before the full stop characterizes the base formulation, the Arabian number the type of compound (A.# compound according to invention (component (a)); B.# comparative compound).

Amy2=Amplify = experiment: as above; parameters: key: % of activity in reference formulation at time 0; conditions: base formulation V., 2.0 wt % component (a), storage at 37° C.
Procedure: (§4) The storage stability of amylase was assessed at 37° C. Base test formulations were manufactured by making base formulations I to V by mixing the components according to Table 1. Amylases used: Amy1=Stainzyme, Amy2=Amplify, Amy3=Stainzyme Plus L (12L) The respective component (a) or comparative compound was added, if applicable, to the respective base formulation in amounts as indicated in Table 1. The amount of amylase as provided in Table 1 refers to active protein. Water was added to accomplish the balance to 100. […] Amylase activity at certain points in time as indicated in Table 2 was measured quantitatively by the release of the chromophore para-nitrophenol (pNP) from the substrate ([…]-blocked-pNPG7, Roche Applied Science 10880078103). The alpha-amylase degrades the substrate into smaller molecules and α-glucosidase (Roche Applied Science 11626329103), which is present in excess compared to the amylase, process these smaller products until pNP is released; the release of pNP, measured via an increase of absorption at 405 nm, is directly proportional to the amylase activity of the sample. Amylase standard: […] 120 L (Sigma 3403). […] The amylolytic activity values provided were calculated referring to the value determined in the reference formulation at the time 0. The nomenclature of formulations is as follows: the Roman number before the full stop characterizes the base formulation, the Arabian number the type of compound (A.# compound according to invention (component (a)); B.# comparative compound).

Amy1=Stainzyme = experiment: as above; parameters: key: % of activity in reference formulation at time 0; conditions: base formulation IV., 2.0 wt % component (a), storage at 37° C.
Procedure: as §4

O=C(CC(O)(CC(=O)OCc1ccccc1)C(=O)OCc1ccccc1)OCc1ccccc1 [A.8, Tribenzylcitrate]
protease activity, referring to reference formulation at time 0 (Savinase Ultra 16.0L; base formulation II., 1.5 wt % component (a), 3 d): 94
protease activity, referring to reference formulation at time 0 (Savinase Ultra 16.0L; base formulation II., 1.5 wt % component (a), 7 d): 93
protease activity, referring to reference formulation at time 0 (Savinase Ultra 16.0L; base formulation II., 1.5 wt % component (a), 14 d): 90
protease activity, referring to reference formulation at time 0 (Savinase Ultra 16.0L; base formulation II., 1.5 wt % component (a), 21 d): 87
protease activity, referring to reference formulation at time 0 (Savinase Ultra 16.0L; base formulation II., 1.5 wt % component (a), 28 d): 83
protease activity, referring to reference formulation at time 0 (Savinase Ultra 16.0L; base formulation II., 1.5 wt % component (a), 42 d): 75
protease activity, referring to reference formulation at time 0 (Savinase Ultra 16.0L; base formulation II., 1.5 wt % component (a), T0): 100
protease activity, referring to reference formulation at time 0 (Savinase Ultra 16.0L; base formulation IV., 2.0 wt % component (a), 3 d): 96
protease activity, referring to reference formulation at time 0 (Savinase Ultra 16.0L; base formulation IV., 2.0 wt % component (a), 7 d): 93
protease activity, referring to reference formulation at time 0 (Savinase Ultra 16.0L; base formulation IV., 2.0 wt % component (a), 14 d): 88
protease activity, referring to reference formulation at time 0 (Savinase Ultra 16.0L; base formulation IV., 2.0 wt % component (a), 21 d): 83
protease activity, referring to reference formulation at time 0 (Savinase Ultra 16.0L; base formulation IV., 2.0 wt % component (a), 28 d): 75
protease activity, referring to reference formulation at time 0 (Savinase Ultra 16.0L; base formulation IV., 2.0 wt % component (a), 42 d): 68
protease activity, referring to reference formulation at time 0 (Savinase Ultra 16.0L; base formulation IV., 2.0 wt % component (a), T0): 98
protease activity, referring to reference formulation at time 0 (Savinase Ultra 16.0L; base formulation V., 2.0 wt % component (a), 3 d): 96
protease activity, referring to reference formulation at time 0 (Savinase Ultra 16.0L; base formulation V., 2.0 wt % component (a), 7 d): 92
protease activity, referring to reference formulation at time 0 (Savinase Ultra 16.0L; base formulation V., 2.0 wt % component (a), 14 d): 86
protease activity, referring to reference formulation at time 0 (Savinase Ultra 16.0L; base formulation V., 2.0 wt % component (a), 21 d): 82
protease activity, referring to reference formulation at time 0 (Savinase Ultra 16.0L; base formulation V., 2.0 wt % component (a), 28 d): 77
protease activity, referring to reference formulation at time 0 (Savinase Ultra 16.0L; base formulation V., 2.0 wt % component (a), 42 d): 69
protease activity, referring to reference formulation at time 0 (Savinase Ultra 16.0L; base formulation V., 2.0 wt % component (a), T0): 100
amylase activity, referring to reference formulation at time 0 ([1]; 3 d): 100
amylase activity, referring to reference formulation at time 0 ([1]; 7 d): 95
amylase activity, referring to reference formulation at time 0 ([1]; 14 d): 90
amylase activity, referring to reference formulation at time 0 ([1]; 21 d): 83
amylase activity, referring to reference formulation at time 0 ([1]; 28 d): 81
amylase activity, referring to reference formulation at time 0 ([1]; 42 d): 71
amylase activity, referring to reference formulation at time 0 ([1]; T0): 99
amylase activity, referring to reference formulation at time 0 (Amy2=Amplify; 3 d): 93
amylase activity, referring to reference formulation at time 0 (Amy2=Amplify; 7 d): 86
amylase activity, referring to reference formulation at time 0 (Amy2=Amplify; 14 d): 80
amylase activity, referring to reference formulation at time 0 (Amy2=Amplify; 21 d): 77
amylase activity, referring to reference formulation at time 0 (Amy2=Amplify; 28 d): 66
amylase activity, referring to reference formulation at time 0 (Amy2=Amplify; 42 d): 59
amylase activity, referring to reference formulation at time 0 (Amy2=Amplify; T0): 98
amylase activity, referring to reference formulation at time 0 (Amy1=Stainzyme; 3 d): 96
amylase activity, referring to reference formulation at time 0 (Amy1=Stainzyme; 7 d): 92
amylase activity, referring to reference formulation at time 0 (Amy1=Stainzyme; 14 d): 86
amylase activity, referring to reference formulation at time 0 (Amy1=Stainzyme; 21 d): 81
amylase activity, referring to reference formulation at time 0 (Amy1=Stainzyme; 28 d): 70
amylase activity, referring to reference formulation at time 0 (Amy1=Stainzyme; 42 d): 59
amylase activity, referring to reference formulation at time 0 (Amy1=Stainzyme; T0): 98
